Test results from PubChem BioAssay AID2060511 (Molecular Pharmacology Branch, DTP, NCI, 2025).

Test system: 422866-222-R5-J1-PDC spheroids with HUVEC/MSC, viability
Assay: Anticancer human tumor 422866-222-R5-J1-PDC patient-derived pancreatic adenocarcinoma cell line growth inhibition [GQUAD]
Conditions: for IC50: curve of first compound; for viability, T/C: stronger effect = lower value
Method in brief: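 Tumor cells were grown as complex spheroids with HUVEC endothelial cells and mesenchymal stem cells as stroma. G-quadruplex stabilizers were combined with targeted agents over half-log dilutions from near the clinical Cmax, or from 10 microM.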

[1] = second compound 0.0316 µM, first compound 0.0316 µM
[2] = second compound 0.0316 µM, first compound 0.1 µM
[3] = second compound 0.0316 µM, first compound 0.316 µM
[4] = second compound 0.0316 µM, first compound 1 µM
[5] = second compound 0.0316 µM, first compound 3.16 µM
[6] = second compound 0.0316 µM, first compound 10 µM
[7] = second compound 0.1 µM, first compound 0.0316 µM
[8] = second compound 0.1 µM, first compound 0.1 µM
[9] = second compound 0.1 µM, first compound 0.316 µM
[10] = second compound 0.1 µM, first compound 1 µM
[11] = second compound 0.1 µM, first compound 3.16 µM
[12] = second compound 0.1 µM, first compound 10 µM
[13] = second compound 0.316 µM, first compound 0.0316 µM
[14] = second compound 0.316 µM, first compound 0.1 µM
[15] = second compound 0.316 µM, first compound 0.316 µM
[16] = second compound 0.316 µM, first compound 1 µM
[17] = second compound 0.316 µM, first compound 3.16 µM
[18] = second compound 0.316 µM, first compound 10 µM
[19] = second compound 1 µM, first compound 0.0316 µM
[20] = second compound 1 µM, first compound 0.1 µM
[21] = second compound 1 µM, first compound 0.316 µM
[22] = second compound 1 µM, first compound 1 µM
[23] = second compound 1 µM, first compound 3.16 µM
[24] = second compound 1 µM, first compound 10 µM
[25] = second compound 3.16 µM, first compound 0.0316 µM
[26] = second compound 3.16 µM, first compound 0.1 µM
[27] = second compound 3.16 µM, first compound 0.316 µM
[28] = second compound 3.16 µM, first compound 1 µM
[29] = second compound 3.16 µM, first compound 3.16 µM
[30] = second compound 3.16 µM, first compound 10 µM
[31] = second compound 10 µM, first compound 0.0316 µM
[32] = second compound 10 µM, first compound 0.1 µM
[33] = second compound 10 µM, first compound 0.316 µM
[34] = second compound 10 µM, first compound 1 µM
[35] = second compound 10 µM, first compound 3.16 µM
[36] = second compound 10 µM, first compound 10 µM
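Also: spheroids exposed to compounds for seven days before reading.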
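For viability, T/C in this document: percent viability relative to DMSO vehicle control taken as 100%.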

For `C#Cc1c(F)ccc2cc(O)cc(-c3ncc4c(N5CC6CCC(C5)N6)nc(OCC56CCCN5CC(F)C6)nc4c3F)c12` (stereo unspecified) + Cc1cnc(CNC(=O)c2c(=O)c3ccc(N4CCCN(C)CC4)nc3n3c2sc2ccccc23)cn1, the IC50 (second compound 0.0316 µM) was 1760 nM, the IC50 (second compound 0.1 µM) was 1410 nM and the IC50 (second compound 0.316 µM) was 3220 nM. It also gave an IC50 (second compound 1 µM) of 3460 nM, an IC50 (second compound 3.16 µM) of 2320 nM and an IC50 (second compound 10 µM) of 1360 nM. For the same compound, the viability, T/C [1] was 95.9%, the viability, T/C [2] was 87% and the viability, T/C [3] was 72%. The viability, T/C [4] was 57.1%, the viability, T/C [5] was 43% and the viability, T/C [6] was 29.5%. The viability, T/C [7] was 98.4%, the viability, T/C [8] was 97.9% and the viability, T/C [9] was 69.7%. The viability, T/C [10] was 55.3%, the viability, T/C [11] was 42.5% and the viability, T/C [12] was 30.7%. For the same compound, the viability, T/C [13] was 97%, the viability, T/C [14] was 79.4% and the viability, T/C [15] was 75.4%. It also gave a viability, T/C [16] of 65.6%, a viability, T/C [17] of 49.8% and a viability, T/C [18] of 36.1%. It also gave a viability, T/C [19] of 95.8%, a viability, T/C [20] of 86.3% and a viability, T/C [21] of 73.6%. It also gave a viability, T/C [22] of 57.4%, a viability, T/C [23] of 55% and a viability, T/C [24] of 39.7%. For the same compound, the viability, T/C [25] was 77.4%, the viability, T/C [26] was 85.1% and the viability, T/C [27] was 78.8%. The viability, T/C [28] was 58.2%, the viability, T/C [29] was 49.7% and the viability, T/C [30] was 37%. The viability, T/C [31] was 70.5%, the viability, T/C [32] was 82% and the viability, T/C [33] was 73%. For the same compound, the viability, T/C [34] was 52.4%, the viability, T/C [35] was 43.3% and the viability, T/C [36] was 34.4%.
With `O=c1[nH]cc(F)c(=O)[nH]1` + CN(C)c1ccc(Nc2c3ccc(NC(=O)CCN4CCCC4)cc3nc3cc(NC(=O)CCN4CCCC4)ccc23)cc1 the IC50 (second compound 0.0316 µM) was > 10000 nM, the IC50 (second compound 0.1 µM) was > 10000 nM and the IC50 (second compound 0.316 µM) was > 10000 nM. The IC50 (second compound 1 µM) was > 10000 nM, the IC50 (second compound 3.16 µM) was > 10000 nM and the IC50 (second compound 10 µM) was > 10000 nM. For the same compound, the viability, T/C [1] was 96.8%, the viability, T/C [2] was 86.5% and the viability, T/C [3] was 97%. For the same compound, the viability, T/C [4] was 84.5%, the viability, T/C [5] was 82.2% and the viability, T/C [6] was 66.2%. It also gave a viability, T/C [7] of 99.7%, a viability, T/C [8] of 74.6% and a viability, T/C [9] of 104%. The viability, T/C [10] was 75.5%, the viability, T/C [11] was 71.2% and the viability, T/C [12] was 72%. For the same compound, the viability, T/C [13] was 88.6%, the viability, T/C [14] was 79% and the viability, T/C [15] was 75.4%. For the same compound, the viability, T/C [16] was 88.9%, the viability, T/C [17] was 67.3% and the viability, T/C [18] was 68.4%. For the same compound, the viability, T/C [19] was 88.6%, the viability, T/C [20] was 77% and the viability, T/C [21] was 86.5%. The viability, T/C [22] was 79%, the viability, T/C [23] was 70.8% and the viability, T/C [24] was 67.9%. It also gave a viability, T/C [25] of 78.8%, a viability, T/C [26] of 79.4% and a viability, T/C [27] of 86.2%. For the same compound, the viability, T/C [28] was 88.1%, the viability, T/C [29] was 65.9% and the viability, T/C [30] was 53.6%. It also gave a viability, T/C [31] of 91.3%, a viability, T/C [32] of 108% and a viability, T/C [33] of 93.8%. It also gave a viability, T/C [34] of 84%, a viability, T/C [35] of 75.2% and a viability, T/C [36] of 76.6%.
`CC(=O)O[C@H]1C(=O)[C@@]2(C)[C@H]([C@H](OC(=O)c3ccccc3)[C@]3(O)C[C@H](OC(=O)[C@H](O)[C@@H](NC(=O)c4ccccc4)c4ccccc4)C(C)=C1C3(C)C)[C@]1(OC(C)=O)CO[C@@H]1C[C@@H]2O` + Cc1[nH]c2ccc(F)cc2c1-c1nc2c3cccnc3c3ncccc3c2[nH]1 was tested, and the IC50 (second compound 0.0316 µM) was 671 nM, the IC50 (second compound 0.1 µM) was 1300 nM and the IC50 (second compound 0.316 µM) was 2040 nM. The IC50 (second compound 1 µM) was 1720 nM, the IC50 (second compound 3.16 µM) was 2160 nM and the IC50 (second compound 10 µM) was 2040 nM. The viability, T/C [1] was 143%, the viability, T/C [2] was 143% and the viability, T/C [3] was 74.7%. The viability, T/C [4] was 39%, the viability, T/C [5] was 44.4% and the viability, T/C [6] was 1.31%. It also gave a viability, T/C [7] of 109%, a viability, T/C [8] of 128% and a viability, T/C [9] of 100%. It also gave a viability, T/C [10] of 48.5%, a viability, T/C [11] of 37.1% and a viability, T/C [12] of 2.15%. For the same compound, the viability, T/C [13] was 122%, the viability, T/C [14] was 107% and the viability, T/C [15] was 99.5%. For the same compound, the viability, T/C [16] was 55.3%, the viability, T/C [17] was 46.9% and the viability, T/C [18] was 3.01%. It also gave a viability, T/C [19] of 117%, a viability, T/C [20] of 115% and a viability, T/C [21] of 98.5%. The viability, T/C [22] was 53.4%, the viability, T/C [23] was 42% and the viability, T/C [24] was 2.03%. The viability, T/C [25] was 70.5%, the viability, T/C [26] was 75% and the viability, T/C [27] was 95%. The viability, T/C [28] was 43.4%, the viability, T/C [29] was 50% and the viability, T/C [30] was 3.32%. The viability, T/C [31] was 56.1%, the viability, T/C [32] was 62% and the viability, T/C [33] was 58.2%. For the same compound, the viability, T/C [34] was 46.6%, the viability, T/C [35] was 49.7% and the viability, T/C [36] was 4.03%.
